According to DBAASP:
Values after ≈ are worked out from the molar mass of the structure shown. One block for each compound: values may come before it.

Experiments:
Experiment in all cases: ≥ marks a high value that may be exact or a test limit, other limits are often not marked, values filed in µg/mL are converted to µM
[1] = system: Candida tropicalis ATCC 20240
[2] = system: Candida glabrata ATCC 90525
[3] = system: Candida parapsilosis ATCC 20224
[4] = system: Candida albicans ATCC 2048
Candida krusei ATCC 6258 = system: Candida krusei ATCC 6258
[5] = system: Bordetella bronchiseptica CUN 11844-99
[6] = system: Staphylococcus aureus ATCC 25923
[7] = system: Escherichia coli ATCC 25922
[8] = system: Pseudomonas aeruginosa CUN 4158-02
[9] = system: Enterococcus faecium CCT 5079
[10] = system: Bacillus cereus ATCC 11778
[11] = system: Escherichia coli CCT 1457
[12] = system: Pseudomonas aeruginosa ATCC 15422
[13] = system: Pseudomonas aeruginosa ATCC 13388
[14] = system: Salmonella enterica subsp. enterica serovar Choleraesuis ATCC 10708
[15] = system: Streptococcus pneumoniae ATCC 11733
[16] = system: Staphylococcus aureus CCT 2580
[17] = system: Staphylococcus aureus CCT 6538
[18] = system: Salmonella enterica subsp. enterica serovar Typhimurium ATCC 14028
[19] = system: Escherichia coli ATCC 11775
[20] = system: Staphylococcus epidermidis ATCC 12228
[21] = system: Bacillus thuringiensis ATCC 10792
[22] = system: Micrococcus luteus ATCC 4698
[23] = system: Enterococcus hirae ATCC 10541
[24] = system: Streptococcus mutans AU159
[25] = system: Vibrio alginolyticus CIP 109819
[26] = system: Listeria monocytogenes CIP 110871
[27] = system: Enterococcus faecalis CIP 76.117
[28] = system: Escherichia coli CIP 54.8T
[29] = system: Staphylococcus aureus CIP 53.156
[30] = system: Salmonella typhimurium CIP 103446
[31] = system: Aeromonas salmonicida CIP 103209T
[32] = system: Bacillus megaterium CIP 51.17
[33] = system: Pseudomonas aeruginosa ATCC 27853
[34] = system: Staphylococcus pseudintermedius
Pseudomonas aeruginosa = system: Pseudomonas aeruginosa
[35] = system: Staphylococcus aureus ATCC 29213
Escherichia coli D21 = system: Escherichia coli D21
Escherichia coli ML-35 = system: Escherichia coli ML-35
Bacillus megaterium Bm11 = system: Bacillus megaterium Bm11
[36] = system: Serratia marcescens ATCC 8100
[37] = system: Escherichia coli NCTC 10418
[38] = system: Staphylococcus aureus NCTC 12981

Compound: CC[C@H](C)[C@H](NC(=O)CN)C(=O)NCC(=O)N[C@@H](CCCCN)C(=O)N[C@@H](Cc1ccccc1)C(=O)N[C@@H](CO)C(=O)N[C@@H](CCCCN)C(=O)N[C@@H](CCCCN)C(=O)NCC(=O)N[C@@H](C)C(=O)N[C@@H](C)C(=O)N[C@@H](C)C(=O)N[C@@H](CCCN=C(N)N)C(=O)N[C@@H](CCCN=C(N)N)C(=O)N[C@@H](CCCN=C(N)N)C(=O)N[C@@H](CCCCN)C(=O)N[C@H](C(=O)N[C@@H](CO)C(=O)N[C@@H](CC(C)C)C(=O)N[C@@H](CCCCN)C(=O)N[C@@H](C)C(=O)N[C@@H](CC(C)C)C(N)=O)C(C)C [GIGKFSKKGAAARRRKVSLKAL]
MIC [5]: ≥ 219 µM
MIC [6]: > 219 µM
MIC [7]: > 219 µM
MIC [8]: ≥ 219 µM

Compound: CC[C@H](C)[C@H](N)C(=O)N[C@@H](CC(N)=O)C(=O)N[C@@H](Cc1c[nH]c2ccccc12)C(=O)N[C@@H](CC(C)C)C(=O)N[C@@H](C)C(=O)N[C@H](C(=O)N[C@@H](C)C(=O)N[C@@H](CCCCN)C(=O)N[C@@H](CCCCN)C(=O)N[C@H](C(=O)N[C@@H](C)C(=O)NCC(=O)N[C@@H](CCSC)C(=O)N[C@@H](CC(C)C)C(N)=O)C(C)C)[C@@H](C)CC [INWLAIAKKVAGML]
MIC [9]: 5.24 µM (≈ 8 µg/mL)
MIC [10]: 10.5 µM (≈ 16 µg/mL)
MIC [11]: 2.62 µM (≈ 4 µg/mL)
MIC [12]: 10.5 µM (≈ 16 µg/mL)
MIC [13]: ≥ 41.2 µM
MIC [14]: 10.5 µM (≈ 16 µg/mL)
MIC [15]: 1.31 µM (≈ 2 µg/mL)
MIC [16]: 2.62 µM (≈ 4 µg/mL)
MIC [17]: 2.62 µM (≈ 4 µg/mL)
MIC [6]: 15.1 µM (≈ 23 µg/mL)
MIC [18]: 20.3 µM (≈ 31 µg/mL)
MIC [19]: 5.24 µM (≈ 8 µg/mL)
MIC [20]: 2.62 µM (≈ 4 µg/mL)
MIC [7]: 2.62 µM (≈ 4 µg/mL)
MIC [21]: 5.24 µM (≈ 8 µg/mL)
MIC [22]: 2.62 µM (≈ 4 µg/mL)
MIC [23]: 5.24 µM (≈ 8 µg/mL)
MIC [24]: 2.62 µM (≈ 4 µg/mL)

Compound: CC[C@H](C)[C@H](NC(=O)[C@H](CC(C)C)NC(=O)[C@@H]1CCCN1C(=O)[C@H](CCCCN)NC(=O)[C@H](CC(C)C)NC(=O)[C@H](CCCN=C(N)N)NC(=O)[C@H](CCCN=C(N)N)NC(=O)[C@H](CC(C)C)NC(C)=O)C(=O)N[C@@H](CCCN=C(N)N)C(=O)N1CCC[C@H]1C(=O)N[C@@H](Cc1c[nH]c2ccccc12)C(=O)N[C@@H](CC(C)C)C(=O)N[C@@H](CCCN=C(N)N)C(=O)N1CCC[C@H]1C(=O)N[C@@H](CC(C)C)C(=O)N[C@@H](CCCN=C(N)N)C(=O)N[C@@H](CCCN=C(N)N)C(=O)N[C@@H](Cc1c[nH]c2ccccc12)C(=O)N[C@@H](Cc1c[nH]c2ccccc12)C(=O)N[C@@H](Cc1c[nH]c2ccccc12)C(N)=O [LRRLKPLIRPWLRPLRRWWW]
MIC [33]: 5.72 µM (≈ 16.2 µg/mL)
MIC [34]: 16.2 µM (≈ 45.9 µg/mL)
MIC (Pseudomonas aeruginosa): 4.04 µM (≈ 11.5 µg/mL)
MIC [35]: 11.4 µM (≈ 32.5 µg/mL)

Compound: CC(C)C[C@H](NC(=O)[C@H](Cc1ccc(O)cc1)NC(=O)[C@@H]1CCCN1C(=O)[C@@H]1CCCN1C(=O)[C@H](CCCN=C(N)N)NC(=O)[C@@H]1CCCN1C(=O)[C@H](CCCN=C(N)N)NC(=O)[C@H](CCCN=C(N)N)NC(=O)[C@@H](N)CCCN=C(N)N)C(=O)N[C@@H](CCCN=C(N)N)C(=O)N1CCC[C@H]1C(=O)N[C@@H](CCCN=C(N)N)C(=O)N1CCC[C@H]1C(=O)N1CCC[C@H]1C(=O)N1CCC[C@H]1C(=O)O [RRRPRPPYLRPRPPP]
MIC (Escherichia coli D21): 16 µM (≈ 30.6 µg/mL)
MIC (Escherichia coli ML-35): ≥ 32 µM
MIC [18]: 32 µM (≈ 61.2 µg/mL)
MIC [20]: > 64 µM
MIC (Bacillus megaterium Bm11): ≥ 32 µM
MIC [36]: ≥ 32 µM

Results, then the compound that gave them:

MIC [1]: ≥ 290 µM
MIC [2]: ≥ 300 µM
MIC [3]: ≥ 300 µM
MIC [4]: ≥ 240 µM
MIC (Candida krusei ATCC 6258): ≥ 240 µM
Compound: C[C@H](NC(=O)CN)C(=O)N[C@@H](CCCCN)C(=O)N[C@@H](CCC(=O)O)C(=O)N[C@@H](CCCN=C(N)N)C(=O)N[C@@H](C)C(=O)N[C@@H](Cc1cnc[nH]1)C(=O)N[C@@H](CCC(N)=O)C(=O)O [GAKERAHQ]

MIC [25]: ≥ 35.4 µM
MIC [26]: ≥ 50 µM
MIC [27]: ≥ 122 µM
MIC [28]: 3.16 µM (≈ 6.74 µg/mL)
MIC [29]: 15.8 µM (≈ 33.7 µg/mL)
MIC [30]: ≥ 86.6 µM
MIC [31]: 15.8 µM (≈ 33.7 µg/mL)
MIC [32]: 3.16 µM (≈ 6.74 µg/mL)
Compound: CC[C@H](C)[C@H](NC(=O)[C@@H](N)CCCCN)C(=O)N[C@@H](CCCN=C(N)N)C(=O)N[C@@H](Cc1ccccc1)C(=O)N[C@H](C(=O)N[C@@H](CCCN=C(N)N)C(=O)N[C@H](C(=O)N[C@H](C(=O)N[C@@H](CO)C(=O)N[C@@H](CCCN=C(N)N)C(=O)N[C@@H](CC(C)C)C(=O)N[C@@H](CC(C)C)C(=O)N[C@@H](CCCCN)C(=O)N[C@@H](C)C(=O)N[C@@H](C)C(=O)N[C@@H](CC(C)C)C(=O)N[C@@H](C)C(=O)N[C@@H](CO)C(=O)N[C@H](C(=O)O)[C@@H](C)O)C(C)C)[C@@H](C)O)[C@@H](C)O [KIRFTRTVSRLLKAALAST]

MIC [6]: 183 µM (≈ 99.8 µg/mL)
MIC [37]: ≥ 234 µM
MIC [7]: > 366 µM
MIC [38]: ≥ 234 µM
Compound: NC(=O)[C@H](Cc1c[nH]c2ccccc12)NC(=O)[C@H](CCCN=C(N)N)NC(=O)[C@@H](N)Cc1c[nH]c2ccccc12 [WRW]
